Measured values taken from US20240368133A1, “Compounds for the Treatment of Pain, in Particular, Neuropathic Pain, and/or Other Diseases or Disorders that are Associated with AT2R and/or AT2R Mediated Signaling” (Confo Therapeutics N.V., priority 2021, published 2024).
Counter-ions that a name gives are not always drawn.

What follows are compounds tested against human AT1R (Homo sapiens (Human), UniProt P30556) (assay: Counterscreen radioligand binding assay, displacement of 125I-[Sar1, Ile8]-Angiotensin II, hAT1R WT). Details: 125I-[Sar1, Ile8]-Ang II, compound at 1 μM, semi-quantitative score, read-out: % Displaced radioligand at 1 μM.
Sequence of human AT1R (P30556 whole entry, the tested form may be a part): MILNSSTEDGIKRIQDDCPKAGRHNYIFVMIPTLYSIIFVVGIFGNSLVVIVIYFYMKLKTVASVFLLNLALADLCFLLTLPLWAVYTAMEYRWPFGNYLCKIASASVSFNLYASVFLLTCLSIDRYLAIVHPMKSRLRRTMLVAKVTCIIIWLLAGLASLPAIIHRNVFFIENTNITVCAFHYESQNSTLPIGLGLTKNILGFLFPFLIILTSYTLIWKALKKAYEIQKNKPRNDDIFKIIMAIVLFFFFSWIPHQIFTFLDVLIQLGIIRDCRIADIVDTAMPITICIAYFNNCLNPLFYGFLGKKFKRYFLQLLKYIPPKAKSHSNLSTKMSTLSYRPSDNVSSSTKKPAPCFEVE
Protocol: (§1) All synthesized ligands were evaluated in a radioligand assay by displacing ^125I-[Sar1, Ile8]-Angiotensin II (Perkin Elmer, NEX248050UC) from human AT2R fused to Cb23 or human/rodent/cynomolgus/minipig/dog WT AT2R in HEK-293 cells membrane preparations, using C21 (Vicore Pharma) and Angiotensin II (endogenous ligand) as reference. The affinity was determined using an eight-point dose-response curve, each point performed in duplicates. The compounds were also evaluated in a counterscreen binding assay for displacement of ^125I-[Sar1, Ile8]-Angiotensin II binding to human AT1R in HEK-293 cell membranes. For AT1R, the percent displacement was determined at 1 μM and […] (in duplicates) or using an eight-point dose-response curve, each point performed in duplicates with Candesartan and Losartan used as reference.
(§2) For the AT2R/AT1R binding assays, cell membranes, expressing AT2R_Cb23, AT2R or AT1R, were incubated with 0.05 nM ^125I-[Sarl, Ile8]-Ang II. The ligand competition assay was performed in a total volume of 100 μL assay buffer (50 mM Tris, 5 mM MgCl2, 1 mM EDTA, 0.1% BSA, pH 7.4), at concentrations ranging from […] to 10 μM. For each experiment, each ligand concentration was tested in duplicate. Non-specific binding (NSB) was determined by the inclusion of 10 μM unlabeled [Sarl]-Ang II (Sigma Aldrich). The reaction was initiated by the addition of radioligand, after which the plates were incubated at 25° C. for one hour. The reaction was terminated by rapid filtration using a vacuum harvester, applying six washes with 100 μL of ice-cold wash buffer (50 mM Tris.HCl, pH 7.4). The filter plates GF/C (Perkin Elmer) were pre-soaked in 0.5% PEI. The residual amount of radioactivity was determined via liquid scintillation counting. IC50 values, representing the concentration at which each ligand displaced 50% of ^125I-[Sarl, Ile8]-Ang II, were calculated using GraphPad Prism 7.02 by applying a Non-linear regression equation (variable slope, four parameters) on the data. The obtained values serve as affinity estimates for each ligand and their ability to compete against the radioligand for binding with AT2R or AT1R, respectively.

inhibition at 1 µM [%] | SMILES
< 30 | c1ccc2sc(CN3CCN(c4cc(NCC5CC5)ccc4-c4nn[nH]n4)CC3)nc2c1 [Compound A-62, 3-[4-(1,3-benzothi-azol-2-ylmethyl)-piperazin-1-yl]-N-(cyclopropylmeth-yl)-4-(2H-tetrazol-5-yl)aniline]

Same assay, conditions: 125I-[Sar1, Ile8]-Ang II, compound at 10 μM, semi-quantitative score, read-out: % Displaced radioligand at 10 μM

inhibition at 10 µM [%] | SMILES
< 30 | c1ccc2sc(CN3CCN(c4cc(NCC5CC5)ccc4-c4nn[nH]n4)CC3)nc2c1 [Compound A-62, 3-[4-(1,3-benzothi-azol-2-ylmethyl)-piperazin-1-yl]-N-(cyclopropylmeth-yl)-4-(2H-tetrazol-5-yl)aniline]

What follows are compounds tested against human AT2R fused to Cb23 (Homo sapiens, UniProt P50052) (assay: Radioligand binding assay, displacement of 125I-[Sar1, Ile8]-Angiotensin II, hAT2R Cb23). Details: not given.
Sequence of human AT2R fused to Cb23 (P50052 whole entry, looked up, the tested form may be a part): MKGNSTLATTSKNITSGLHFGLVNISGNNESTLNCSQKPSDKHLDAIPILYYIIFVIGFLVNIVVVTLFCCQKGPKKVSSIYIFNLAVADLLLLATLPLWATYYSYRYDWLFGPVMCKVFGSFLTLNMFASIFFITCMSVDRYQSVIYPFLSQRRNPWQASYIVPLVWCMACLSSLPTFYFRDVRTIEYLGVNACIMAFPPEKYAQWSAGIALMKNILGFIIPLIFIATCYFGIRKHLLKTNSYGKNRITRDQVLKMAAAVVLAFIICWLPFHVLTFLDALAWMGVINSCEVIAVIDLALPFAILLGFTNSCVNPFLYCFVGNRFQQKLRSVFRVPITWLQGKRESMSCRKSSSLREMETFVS
Protocol: as §1, §2

SMILES | IC50 [µM]
c1ccc2sc(CN3CCN(c4cc(NC5CC5)ccc4-c4nn[nH]n4)CC3)nc2c1 [Compound A-61, 3-[4-(1,3-benzothi-azol-2-ylmethyl)-piperazin-1-yl]-N-cyclopropyl-4-(2H-tetrazol-5-yl)aniline hydrochloride] | 14.7

Same assay, conditions: displacement of 125I-[Sar1, Ile8]-Angiotensin II, human AT2R fused to Cb23, HEK-293 cell membrane preparations; read-out: Binding affinity on hAT2R_Cb23 IC50

IC50 [µM] | SMILES
22.8 | CCS(=O)(=O)NC(=O)c1ccccc1N1CCN(Cc2nc3ccccc3s2)CC1 [Compound A-04, 2-[4-(1,3-benzothiazol-2-ylmethyl)piperazin-1-yl]-N-ethylsulfonyl-benzamide]
16.5 | Cc1cc(=O)nc(CN2CCN(c3cc(CC(C)C)ccc3-c3nn[nH]n3)CC2)[nH]1 [Compound A-100, 2-[[4-[5-isobutyl-2-(2H-tetrazol-5-yl)phenyl]piperazin-1-yl]methyl]-6-methyl-1H-pyrimidin-4-one]
79 | O=c1c2ccccc2nc(-c2ccccc2)n1CC1CCN(c2ccccc2-c2nnn[nH]2)CC1 [Compound A-249, 2-phenyl-3-[[1-[2-(2H-tetrazol-5-yl)phenyl]-4-piperidyl]methyl]quinazolin-4-one]
111 | O=c1[nH]c(CN2CCN(c3ccccc3-c3nn[nH]n3)CC2)nc2ccccc12 [Compound A-26, 2-[[4-[2-(2H-tetrazol-5-yl)phen-yl]piperazin-1-yl]-methyl]-3H-quin-azolin-4-one]
42.9 | Cn1c(CN2CCN(c3ccccc3-c3nn[nH]n3)CC2)nc2ccccc21 [Compound A-15]
13.2 | Cc1noc(CN2CCN(c3cc(CC(C)C)ccc3-c3nn[nH]n3)CC2)n1 [Compound A-96, 5-[[4-[5-isobutyl-2-(2H-tetrazol-5-yl)-phenyl]piperazin-1-yl]methyl]-3-methyl-1,2,4-oxa-diazole]
12.2 | Cc1ncc(CN2CCN(c3cc(CC(C)C)ccc3-c3nn[nH]n3)CC2)cn1 [Compound A-103, 5-[[4-[5-isobutyl-2-(2H-tetrazol-5-yl)-phenyl]piperazin-1-yl]methyl]-2-methyl-pyrimidine]
114 | CC(C)=Cc1ccc(-c2nn[nH]n2)c(N2CCN(Cc3nc4ccccc4c(=O)[nH]3)CC2)c1 [Compound A-30, 2-[[4-[5-(2-methyl-prop-1-enyl)-2-(2H-tetrazol-5-yl)-phenyl]piperazin-1-yl]methyl]-3H-quinazolin-4-one]
20.7 | CCOc1cc(-c2nn[nH]n2)c(N2CCN(Cc3cccnn3)CC2)cc1OC(C)C [Compound A-162, 3-[[4-[4-ethoxy-5-isopropoxy-2-(2H-tetrazol-5-yl)phen-yl]piperazin-1-yl]-methyl]pyridazine]
18.7 | Cc1ncc(CN2CCN(c3cc(CC(C)C)ccc3-c3nn[nH]n3)CC2)n1C [Compound A-114, 1-[(2,3-dimethyl-imidazol-4-yl)meth-yl]-4-[5-isobutyl-2-(2H-tetrazol-5-yl)-phenyl]piperazine]
40.4 | CC(C)Cc1ccc(-c2nn[nH]n2)c(N2CCN(Cc3cn(C)cn3)CC2)c1 [Compound A-109, 1-[5-isobutyl-2-(2H-tetrazol-5-yl)phen-yl]-4-[(1-methyl-imidazol-4-yl)meth-yl]piperazine]
42.4 | O=c1[nH]c(CN2CCN(c3cc(C(F)(F)F)ccc3-c3nn[nH]n3)CC2)nc2ccccc12 [Compound A-29, 2-[[4-[2-(2H-tetrazol-5-yl)-5-(trifluoromethyl)-phenyl]piperazin-1-yl]methyl]-3H-quinazolin-4-one]
17.2 | c1ccc2sc(CN3CCN(c4cc(OCC5COC5)ccc4-c4nn[nH]n4)CC3)nc2c1 [Compound A-58, 2-[[4-[5-(oxetan-3-ylmethoxy)-2-(2H-tetrazol-5-yl)phen-yl]piperazin-1-yl]-methyl]-1,3-benzo-thiazole]
36.2 | CCc1nc2ccccc2c(=O)n1CC1CCN(c2ccccc2-c2nn[nH]n2)CC1 [Compound A-240, 2-ethyl-3-[[1-[2-(2H-tetrazol-5-yl)-phenyl]-4-piperid-yl]methyl]quin-azolin-4-one]
33.9 | Cc1nccc(CN2CCN(c3cc(CC(C)C)ccc3-c3nn[nH]n3)CC2)n1 [Compound A-99]
44 | CCc1cc(-c2nn[nH]n2)c(N2CCN(Cc3cccnn3)CC2)cc1OC(C)C [Compound A-158, 3-[[4-[4-ethyl-5-isopropoxy-2-(2H-tetrazol-5-yl)phen-yl]piperazin-1-yl]-methyl]pyridazine]
33.6 | O=C(O)c1ccccc1CN1CCN(c2nc3ccccc3s2)CC1 [Compound A-01, 2-[[4-(1,3-benzothiazol-2-yl)piperazin-1-yl]methyl]benzoic acid]
0.442 | CC(C)Cc1cc(F)c(-c2nn[nH]n2)c(N2CCC(Cc3ccccn3)CC2)c1 [Compound A-237, 2-[[1-[3-fluoro-5-isobutyl-2-(2H-tetrazol-5-yl)phenyl]-4-piperidyl]methyl]pyridine]
27.7 | CCc1nc2ccc([N+](=O)[O-])cc2c(=O)n1CC1CCN(c2ccccc2-c2nn[nH]n2)CC1 [Compound A-242, 2-ethyl-6-nitro-3-[[1-[2-(2H-tetrazol-5-yl)phenyl]-4-piperidyl]methyl]quinazolin-4-one]
42.5 | CCc1nc2ccccc2c(=O)n1CC1CCN(c2ccccc2C(=O)NS(=O)(=O)CC)CC1 [Compound A-241, 2-[4-[(2-ethyl-4-oxo-quinazolin-3-yl)methyl]-1-piperidyl]-N-ethyl-sulfonyl-benzamide]
28.8 | O=[N+]([O-])c1ccc2nc(N3CCN(Cc4ccccc4-c4nn[nH]n4)CC3)sc2c1 [Compound A-07, 6-nitro-2-[4-[[2-(2H-tetrazol-5-yl)-phenyl]methyl]-piperazin-1-yl]-1,3-benzothiazole]
11.8 | CN1CCN(c2ccc(-c3nn[nH]n3)c(N3CCN(Cc4nc5ccccc5s4)CC3)c2)CC1 [Compound A-66, 2-[[4-[5-(4-methyl-piperazin-1-yl)-2-(2H-tetrazol-5-yl)-phenyl]piperazin-1-yl]methyl]-1,3-benzothiazole]
18.8 | CC(C)Cc1ccc(-c2nn[nH]n2)c(CN2CCN(Cc3cccnn3)CC2)c1 [Compound A-238, 3-[[4-[[5-isobutyl-2-(2H-tetrazol-5-yl)phenyl]methyl]-piperazin-1-yl]-methyl]pyridazine]
21.6 | COCCNc1ccc(-c2nn[nH]n2)c(N2CCN(Cc3nc4ccccc4s3)CC2)c1 [Compound A-63, 3-[4-(1,3-benzothi-azol-2-ylmethyl)-piperazin-1-yl]-N-(2-methoxyethyl)-4-(2H-tetrazol-5-yl)aniline]
41.7 | CC(C)Cc1ccc(-c2nn[nH]n2)c(N2CCN(Cc3ncon3)CC2)c1 [Compound A-108, 3-[[4-[5-isobutyl-2-(2H-tetrazol-5-yl)-phenyl]piperazin-1-yl]methyl]-1,2,4-oxadiazole]
11.6 | CC(C)Oc1cc(F)c(-c2nn[nH]n2)c(N2CCN(Cc3cccnn3)CC2)c1 [Compound A-156, 3-[[4-[3-fluoro-5-isopropoxy-2-(2H-tetrazol-5-yl)phen-yl]piperazin-1-yl]-methyl]pyridazine]
34.4 | CC(C)Oc1ccc(-c2nn[nH]n2)c(N2CCN(Cc3cccnn3)CC2)c1F [Compound A-157, 3-[[4-[2-fluoro-3-isopropoxy-6-(2H-tetrazol-5-yl)phen-yl]piperazin-1-yl]-methyl]pyridazine]
35.3 | CCc1nc2ccc(NC(=O)C3CC3)cc2c(=O)n1CC1CCN(c2ccccc2-c2nn[nH]n2)CC1 [Compound A-247, N-[2-ethyl-4-oxo-3-[[1-[2-(2H-tetrazol-5-yl)phenyl]-4-piperidyl]methyl]-quinazolin-6-yl]-cyclopropane-carboxamide]
22.7 | CCc1cnc(-c2nn[nH]n2)c(N2CCN(Cc3nc4ccccc4s3)CC2)c1 [Compound A-141]
13.3 | CC(=O)Nc1cc(-c2nn[nH]n2)c(N2CCN(Cc3nc4ccccc4s3)CC2)cc1C1CC1 [Compound A-131, N-[4-[4-(1,3-benzo-thiazol-2-ylmethyl)-piperazin-1-yl]-2-cyclopropyl-5-(2H-tetrazol-5-yl)phen-yl]acetamide]
